# Reference: US9751854B2 (Millennium Pharmaceuticals, Inc., priority 2014, dated 2017)
# Target: human VPS34 (Homo sapiens (Human), UniProt Q8NEB9)
# Test: Human VPS34 enzyme assay (Adapta TR-FRET ADP detection)
# Type: biochemical
# Set-up: Percent Inhibition: dose or concentration left out as unconfirmed
# Settings: not given
# human VPS34, sequence (Q8NEB9 whole entry): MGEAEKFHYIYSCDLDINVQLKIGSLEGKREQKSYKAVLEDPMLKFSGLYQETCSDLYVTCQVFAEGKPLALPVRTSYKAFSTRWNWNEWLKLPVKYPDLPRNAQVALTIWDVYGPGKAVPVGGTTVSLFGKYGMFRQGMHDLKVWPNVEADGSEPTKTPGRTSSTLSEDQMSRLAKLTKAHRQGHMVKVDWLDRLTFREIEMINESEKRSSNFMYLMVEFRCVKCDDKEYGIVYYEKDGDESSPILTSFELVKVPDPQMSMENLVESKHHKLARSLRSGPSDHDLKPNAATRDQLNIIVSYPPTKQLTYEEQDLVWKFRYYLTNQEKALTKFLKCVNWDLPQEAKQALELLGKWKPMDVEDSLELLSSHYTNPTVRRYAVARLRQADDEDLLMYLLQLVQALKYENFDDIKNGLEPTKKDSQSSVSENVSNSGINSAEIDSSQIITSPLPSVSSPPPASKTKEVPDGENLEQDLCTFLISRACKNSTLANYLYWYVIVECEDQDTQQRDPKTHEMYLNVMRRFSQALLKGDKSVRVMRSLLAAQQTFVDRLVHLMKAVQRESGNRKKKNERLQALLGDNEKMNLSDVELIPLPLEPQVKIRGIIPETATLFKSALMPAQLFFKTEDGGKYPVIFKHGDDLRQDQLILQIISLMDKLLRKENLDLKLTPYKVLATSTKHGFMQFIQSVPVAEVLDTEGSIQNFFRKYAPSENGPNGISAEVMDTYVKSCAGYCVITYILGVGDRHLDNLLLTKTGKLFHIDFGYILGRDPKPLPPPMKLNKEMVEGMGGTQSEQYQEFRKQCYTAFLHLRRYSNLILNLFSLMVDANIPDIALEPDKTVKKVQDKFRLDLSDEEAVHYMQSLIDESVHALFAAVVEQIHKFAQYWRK
row,SMILES,Percent Inhibition
1,"CC(=O)Nc1cc(-c2cnc(C)c(NS(=O)(=O)N3CC4CCC3C4)c2)ccn1 (stereo not shown) [Compound I-445, N-{5-[(2-azabicyclo[2.2.1]hept-2-ylsulfonyl)amino]-6-methyl-3,4′-bipyridin-2′-yl}acetamide]",>99%

# Same assay, conditions: IC50 range class
row,SMILES,IC50
1,"CC(=O)Nc1cc(-c2cnc(C)c(NS(=O)(=O)c3ccc(F)cc3F)c2)cc(C)n1 [Compound I-414, N-(5-{[(2,4-difluorophenyl)sulfonyl]amino}-6,6′-dimethyl-3,4′-bipyridin-2′-yl)acetamide]",50 to 100 nM
2,"Cc1nccc(Nc2cc(-c3cnc(C)c(C(=O)N4CC5(COC5)C4)c3)ccn2)n1 [Compound I-415, {6-methyl-2′-[(2-methylpyrimidin-4-yl)amino]-3,4′-bipyridin-5-yl}(2-oxa-6-azaspiro[3,3]hept-6-yl)methanone]",10 to 50 nM
3,"CC(=O)Nc1cc(-c2cnc(C)c(N3CC=CS3(=O)=O)c2)ccn1 [Compound I-416, N-[5-(1,1-dioxidoisothiazol-2(3H)-yl)-6-methyl-3,4′-bipyridin-2′-yl]acetamide]",10 to 50 nM
4,"COC(=O)Nc1cc(-c2cnc(C)c(NS(=O)(=O)c3ccc(Cl)cc3F)c2)ccn1 [Compound I-417, methyl (5-{[(4-chloro-2-fluorophenyl)sulfonyl]amino}-6-methyl-3,4′-bipyridin-2′-yl)carbamate]",< 10 nM
5,"CC(=O)Nc1cc(-c2cnc(C)c(S(=O)(=O)NC34CC(C3)C4)c2)ccn1 [Compound I-418, N-[5-(bicyclo[1.1.1]pent-1-ylsulfamoyl)-6-methyl-3,4′-bipyridin-2′-yl]acetamide]",10 to 50 nM
6,"CC(=O)Nc1cc(-c2cncc(NC(=O)c3ccc(F)cc3F)c2)ccn1 [Compound I-419, N-(2′-acetamido-3,4′-bipyridin-5-yl)-2,4-difluorobenzamide]",> 100 nM
7,"CC(=O)Nc1cc(-c2cnc3c(c2)S(=O)(=O)N[C@H](c2ccccc2)CO3)ccn1 [Compound I-420, (R)-N-(4-(1,1-dioxido-3-phenyl-3,4-dihydro-2H-pyrido[2,3-b][1,4,5]oxathiazepin-8-yl)pyridin-2-yl)acetamide]",> 100 nM
8,"Cc1nccc(Nc2cc(-c3cncc(C(C)Oc4ccccc4F)c3)ccn2)n1 (stereo not shown) [Compound I-422, 5-[1-(2-fluorophenoxy)ethyl]-N-(2-methylpyrimidin-4-yl)-3,4′-bipyridin-2′-amine]",10 to 50 nM
9,"COc1ncc(-c2ccnc(NC(C)=O)c2)cc1C(=O)N(C)c1ccc(F)cc1F [Compound I-423, 2′-aceramido-N-(2,4-difluorophenyl)-6-methoxy-N-methyl-3,4′-bipyridine-5-carboxamide]",10 to 50 nM
10,"Cc1nccc(Nc2cc(-c3cnc(C)c(OCCO)c3)ccn2)n1 [Compound I-424, 2-({6-methyl-2′-[(2-methylpyrimidin-4-yl)amino]-3,4′-bipyridin-5-yl}oxy)ethanol]",10 to 50 nM
11,"CC(=O)Nc1cc(-c2cnc(Cl)c(N3CCCS3(=O)=O)c2C)ccn1 [Compound I-425, N-[6-chloro-5-(1,1-dioxidoisothiazolidin-2-yl)-4-methyl-3,4′-bipyridin-2′-yl]acetamide]",10 to 50 nM
12,"COc1ncc(-c2ccnc(NC(C)=O)c2)cc1S(=O)(=O)NC1CCC1 [Compound I-426, N-[5-(cyclobutylsulfamoyl)-6-methoxy-3,4′-bipyridin-2′-yl]acetamide]",10 to 50 nM
13,"CN(C)S(=O)(=O)Nc1cc(-c2ccnc(Nc3ccnc(C4CC4)n3)c2)cn2nccc12 [Compound I-427, N′-(6-{2-[(2-cyclopropylpyrimidin-4-yl)amino]pyridin-4-yl}pyrazolo[1,5-a]pyridin-4-yl)-N,N-dimethylsulfuric diamide]",< 10 nM
14,"CC(=O)Nc1cc(-c2cc(OS(=O)(=O)N(C)C)c3ccnn3c2)ccn1 [Compound I-428, 6-(2-acetamidopyridin-4-yl)pyrazolo[1,5-a]pyridin-4-yl dimethylsulfamate]",< 10 nM
15,"CC(=O)Nc1cc(-c2cnc(Cl)c(NS(=O)(=O)c3ccc(C#N)cc3)c2C)ccn1 [Compound I-429, N-(6-chloro-5-{[(4-cyanophenyl)sulfonyl]amino}-4-methyl-3,4′-bipyridin-2′-yl)acetamide]",10 to 50 nM
16,"Cc1cnc(NC(=O)C2CC2)cc1-c1cnc(Cl)c(NS(=O)(=O)c2ccc(F)cc2F)c1C [Compound I-430, N-(6-chloro-5-{[(2,4-difluorophenyl)sulfonyl]amino}-4,5′-dimethyl-3,4′-bipyridin-2′-yl)cyclopropanecarboxamide]",10 to 50 nM
17,"CC(=O)Nc1cc(-c2cnc(C)c(C(=O)Nc3ccc(F)cc3F)c2)ccn1 [Compound I-431, 2′-acetamido-N-(2,4-difluorophenyl)-6-methyl-3,4′-bipyridine-5-carboxamide]",> 100 nM
18,"COc1ncc(-c2ccnc(NC(C)=O)c2)cc1S(=O)(=O)Nc1cc(Cl)ccc1Cl [Compound I-432, N-{5-[(2,5-dichlorophenyl)sulfamoyl]-6-methoxy-3,4′-bipyridin-2′-yl}acetamide]",10 to 50 nM
19,"Cc1ncc(-c2ccnc(NC(=O)C3CC3)c2)cc1NS(=O)(=O)c1ccc(Cl)cc1F [Compound I-433, N-(5-{[(4-chloro-2-fluorophenyl)sulfonyl]amino}-6-methyl-3,4′-bipyridin-2′-yl)cyclopropanecarboxamide]",10 to 50 nM
20,"CC(=O)Nc1cc(-c2cnc(Cl)c(C(=O)N3CCC3)c2)c(C)cn1 [Compound I-434, N-[5-(azetidin-1-ylcarbonyl)-6-chloro-5′-methyl-3,4′-bipyridin-2′-yl]acetamide]",> 100 nM

row,SMILES,IC50
1,"Cc1c(-c2ccnc(Nc3ccnc(C4CC4)n3)c2)cnc(Cl)c1NS(=O)(=O)N(C)C [Compound I-435, N′-{6-chloro-2′-[(cyclopropylpyrimidin-4-yl)amino]-4-methyl-3,4′-bipyridin-5-yl}-N,N-dimethylsulfuric diamide]",< 10 nM
2,CNc1ncc(-c2ccnc(NC(C)=O)c2)c(C)c1S(=O)(=O)NC(C)(C)C [Compound I-436],50 to 100 nM
3,"CC(=O)Nc1cc(-c2cnc(Cl)c(NS(=O)(=O)c3cccc4ncccc34)c2C)ccn1 [Compound I-437, N-{6-chloro-4-methyl-5-[(quinolin-5-ylsulfonyl)amino]-3,4′-bipyridin-2′-yl}acetamide]",10 to 50 nM
4,"CC(=O)Nc1cc(-c2cnc(Cl)c(S(=O)(=O)NC3CCC3)c2)ccn1 [Compound I-438, N-[6-chloro-5-(cyclobutylsulfamoyl)-3,4′-bipyridin-2′-yl]acetamide]",10 to 50 nM
5,"Cc1nccc(Nc2cc(-c3cnc(C)c(NC(=O)Nc4ccccc4)c3)ccn2)n1 [Compound I-439, 1-{6-methyl-2′-[(2-methylpyrimidin-4-yl)amino]-3,4′-bipyridin-5-yl}-3-phenylurea]",> 100 nM
6,"Cc1nccc(Nc2cc(-c3cncc(OC4CCc5c(F)cccc54)c3)ccn2)n1 (stereo not shown) [Compound I-440, 5-[(4-fluoro-2,3-dihydro-1H-inden-1-yl)oxy]-N-(2-methylpyrimidin-4-yl)-3,4′-bipyridin-2′-amine]",> 100 nM
7,"Cc1ncc(-c2ccnc(NC(=O)C3CC3(F)F)c2)cc1NS(=O)(=O)c1ccc(Cl)cc1F (stereo not shown) [Compound I-441, N-(5-{[(4-chloro-2-fluorophenyl)sulfonyl]amino}-6-methyl-3,4′-bipyridin-2′-yl)-2,2-difluorocyclopropanecarboxamide]",< 10 nM
8,"COc1ncc(-c2ccnc(NC(C)=O)c2)c(C)c1S(=O)(=O)NC(C)(C)C [Compound I-442, N-[5-(tert-butylsulfamoyl)-6-methoxy-4-methyl-3,4′-bipyridin-2′-yl]acetamide]",10 to 50 nM
9,"CC(=O)Nc1cc(-c2cncc(S(=O)(=O)NC(C)(C)C)c2)ccn1 [Compound I-443, N-[5-(tert-butylsulfamoyl)-3,4′-bipyridin-2′-yl]acetamide]",10 to 50 nM
10,"CC(=O)Nc1cc(-c2cnc(Cl)c(NS(=O)(=O)c3ccc(Br)cc3F)c2C)ccn1 [Compound I-444, N-(5-{[(4-bromo-2-fluorophenyl)sulfonyl]amino}-6-chloro-4-methyl-3,4′-bipyridin-2′-yl)acetamide]",10 to 50 nM
11,"CC(=O)Nc1cc(-c2cnc(C)c(NS(=O)(=O)N3CC4CCC3C4)c2)ccn1 (stereo not shown) [Compound I-445, N-{5-[(2-azabicyclo[2.2.1]hept-2-ylsulfonyl)amino]-6-methyl-3,4′-bipyridin-2′-yl}acetamide]",10 to 50 nM
12,"Cc1nccc(Nc2cc(-c3cnc(C)c(OC(C)C)c3)ccn2)n1 [Compound I-446, 5-isopropoxy-6-methyl-N-(2-methylpyrimidin-4-yl)-3,4′-bipyridin-2′-amine]",10 to 50 nM
13,"CC(=O)Nc1cc(-c2cnc(C)c(NS(=O)(=O)N3CCOCC3)c2)ccn1 [Compound I-447, N-{6-methyl-5-[(morpholin-4-ylsulfonyl)amino]-3,4′-bipyridin-2′-yl}acetamide]",< 10 nM
14,"CC(=O)Nc1cc(-c2cnc(Cl)c(N3CCCNS3(=O)=O)c2)ccn1 [Compound I-448, N-[6-chloro-5-(1,1-dioxido-1,2,6-thiadiazinan-2-yl)-3,4′-bipyridin-2′-yl]acetamide]",10 to 50 nM
15,"CNc1ncc(-c2ccnc(NC(C)=O)c2)cc1C(=O)N(C)C12CC(C1)C2 [Compound I-449, 2′-acetamido-N-(bicyclo[1.1.1]pent-1-yl)-N-methyl-6-(methylamino)-3,4′-bipyridine-5-carboxamide]",10 to 50 nM
16,"CC(=O)Nc1cc(-c2ccnc(Nc3ccnc(C)n3)c2)cn2nccc12 [Compound I-450, N-(6-{2-[(2-methylpyrimidin-4-yl)amino]pyridin-4-yl}pyrazolo[1,5-a]pyridin-4-yl)acetamide]",10 to 50 nM
17,"CC(=O)Nc1cc(-c2cncc(N3CCCN(C)S3(=O)=O)c2)ccn1 [Compound I-452, N-[5-(6-methyl-1,1-dioxido-1,2,6-thiadiazinan-2-yl)-3,4′-bipyridin-2′-yl]acetamide]",10 to 50 nM
18,"Cc1nccc(Nc2cc(-c3c[n+]([O-])c(Cl)c(NS(=O)(=O)c4ccc(F)cc4F)c3C)ccn2)n1 [Compound I-454, N-(2-chloro-4-methyl-5-{2-[(2-methylpyrimidin-4-yl)amino)pyridin-4-yl}-1-oxidopyridin-3-yl)-2,4-difluorobenzenesulfonamide]",< 10 nM
19,"CNS(=O)(=O)Nc1cc(-c2ccnc(NC(C)=O)c2)cnc1C [Compound I-455, N-{6-methyl-5-[(methylsulfamoyl)amino]-3,4′-bipyridin-2′-yl}acetamide]",10 to 50 nM
